Test results taken from patent US4605614A, “Method for measuring plasmin” (Nitto Boseki Co., Ltd., priority 1981, dated 1986).

Columns and labels:
[1] = target: Thrombin (TH) (Bos taurus, UniProt P00735); format: biochemical, Cow; conditions: TABLE 4, CHA substrates; So = 0.54; pH 8.4; 37° C., 10 minutes; 1.0 NIH/ml
Protocol: (§1) The specificities of the novelly synthesized substrates were tested by reacting them with various enzymes respectively.
(§2) (1) Substrate solution concentration: 35 mmole/liter H2 O
(§3) (2) Buffer: Tris-hydrochloric acid buffer 50 mmole/l, NaCl 150 mmole/l (0.875%) was employed, and the pH for reaction was as follows depending on the enzyme.
(§4) 2,6-Xylenol 7.0 mmole+NaIO4 1.5 mmole/0.2N KOH
(§5) 0.5 ml of the buffer solution and 0.05 ml of the enzyme reagent were taken into a silicon-treated hard glass test tube or a plastic test tube, and preheated in a constant temperature bath at 37° C. for 5 minutes. Thereafter, 0.1 ml of the substrate solution was added to effect the enzymatic reaction at 37° C. for 10 minutes. Exactly after 10 minutes, 2.5 ml of the reaction terminating solution or the terminating and color developing reagent solution was added to terminate the enzymatic reaction, and after allowing to stand at 25° C. for 10 minutes, the absorbance at 405 nm or 645 nm was measured, in which [drawing 49]

[2] = target: Kallikrein (KL) (Sus scrofa, UniProt P00752); format: biochemical, Pig; conditions: TABLE 4, CHA substrates; So = 0.54; pH 7.9; 37° C., 10 minutes; 1.0 BAEE-U/ml
Protocol: as §1, §2, §3, §4, §5

[3] = target: Plasmin (PL) (Sus scrofa, UniProt P06867); format: biochemical, Pig; conditions: TABLE 4, CHA substrates; So = 0.54; pH 7.4; 37° C., 10 minutes; 0.32 CU/ml
Plasmin (PL), sequence (P06867 97-809): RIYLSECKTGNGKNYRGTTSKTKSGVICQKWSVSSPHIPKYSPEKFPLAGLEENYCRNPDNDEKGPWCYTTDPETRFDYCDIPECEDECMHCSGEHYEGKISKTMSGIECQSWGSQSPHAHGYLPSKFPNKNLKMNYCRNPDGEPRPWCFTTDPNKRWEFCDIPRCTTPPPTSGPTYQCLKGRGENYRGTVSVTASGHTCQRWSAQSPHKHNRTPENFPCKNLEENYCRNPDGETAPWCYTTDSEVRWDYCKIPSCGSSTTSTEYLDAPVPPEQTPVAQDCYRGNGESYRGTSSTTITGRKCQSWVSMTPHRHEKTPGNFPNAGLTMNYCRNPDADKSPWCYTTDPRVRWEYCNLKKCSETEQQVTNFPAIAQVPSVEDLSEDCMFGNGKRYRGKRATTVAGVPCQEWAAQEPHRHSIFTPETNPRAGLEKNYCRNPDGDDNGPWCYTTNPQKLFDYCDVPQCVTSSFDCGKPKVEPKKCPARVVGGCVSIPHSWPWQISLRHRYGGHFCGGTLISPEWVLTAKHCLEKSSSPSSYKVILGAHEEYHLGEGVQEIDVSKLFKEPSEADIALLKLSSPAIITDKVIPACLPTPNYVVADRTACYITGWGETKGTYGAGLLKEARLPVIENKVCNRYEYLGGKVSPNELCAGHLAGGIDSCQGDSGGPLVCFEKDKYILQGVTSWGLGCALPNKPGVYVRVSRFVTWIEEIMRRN
Protocol: as §2, §3
Plasmin Pig Sigma (U.S.A.)
as §5

[4] = target: Urokinase (UK) (Homo sapiens, UniProt P00749); format: biochemical; conditions: TABLE 4, CHA substrates; So = 0.54; pH 8.2; 37° C., 10 minutes; 1000 IU/ml
Protocol: as §1, §2, §3, §4, §5

[5] = target: Factor-Xa (FXa) (Bos taurus, UniProt P00743); format: biochemical, Cow; conditions: TABLE 4, CHA substrates; So = 0.54; pH 8.4; 37° C., 10 minutes; 0.4 U/ml
Factor-Xa (FXa), sequence (P00743 41-180): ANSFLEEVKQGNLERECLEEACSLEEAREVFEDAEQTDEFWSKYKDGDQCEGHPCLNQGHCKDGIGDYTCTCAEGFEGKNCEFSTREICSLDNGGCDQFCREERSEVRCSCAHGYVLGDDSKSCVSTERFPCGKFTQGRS
Factor-Xa (FXa), sequence (P00743 234-492): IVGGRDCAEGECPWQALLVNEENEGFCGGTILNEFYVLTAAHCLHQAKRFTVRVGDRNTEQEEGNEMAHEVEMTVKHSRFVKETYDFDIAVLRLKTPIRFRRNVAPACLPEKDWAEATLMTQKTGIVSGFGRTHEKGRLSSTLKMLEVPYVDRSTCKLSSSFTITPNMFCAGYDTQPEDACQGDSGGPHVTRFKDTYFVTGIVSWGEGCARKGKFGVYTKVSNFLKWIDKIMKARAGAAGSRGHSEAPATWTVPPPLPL

[6] = target: plasmin (pig) (Sus scrofa, UniProt P06867); test: Km, Vmax and Vmax/Km of substrates for plasmin (pig); format: biochemical, Porcine (pig); conditions: for Vmax (× 10^-7): TABLE 2, CHA substrates, plasmin (pig), 2,6-xylenol 615 nm; for Relative ratio: TABLE 2, V/Km of each sample divided by that of S2251 (so in the source)
plasmin (pig), sequence (P06867 97-809): as the sequence (P06867 97-809) above

Kallikrein (KL), sequence (P00752 8-246): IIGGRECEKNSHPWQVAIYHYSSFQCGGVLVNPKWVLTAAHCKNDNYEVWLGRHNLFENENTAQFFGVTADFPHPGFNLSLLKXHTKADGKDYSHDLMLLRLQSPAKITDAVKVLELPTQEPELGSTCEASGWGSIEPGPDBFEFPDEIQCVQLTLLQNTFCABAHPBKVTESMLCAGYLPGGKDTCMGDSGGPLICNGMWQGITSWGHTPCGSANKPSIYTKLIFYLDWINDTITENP
Thrombin (TH), sequence (P00735 44-625): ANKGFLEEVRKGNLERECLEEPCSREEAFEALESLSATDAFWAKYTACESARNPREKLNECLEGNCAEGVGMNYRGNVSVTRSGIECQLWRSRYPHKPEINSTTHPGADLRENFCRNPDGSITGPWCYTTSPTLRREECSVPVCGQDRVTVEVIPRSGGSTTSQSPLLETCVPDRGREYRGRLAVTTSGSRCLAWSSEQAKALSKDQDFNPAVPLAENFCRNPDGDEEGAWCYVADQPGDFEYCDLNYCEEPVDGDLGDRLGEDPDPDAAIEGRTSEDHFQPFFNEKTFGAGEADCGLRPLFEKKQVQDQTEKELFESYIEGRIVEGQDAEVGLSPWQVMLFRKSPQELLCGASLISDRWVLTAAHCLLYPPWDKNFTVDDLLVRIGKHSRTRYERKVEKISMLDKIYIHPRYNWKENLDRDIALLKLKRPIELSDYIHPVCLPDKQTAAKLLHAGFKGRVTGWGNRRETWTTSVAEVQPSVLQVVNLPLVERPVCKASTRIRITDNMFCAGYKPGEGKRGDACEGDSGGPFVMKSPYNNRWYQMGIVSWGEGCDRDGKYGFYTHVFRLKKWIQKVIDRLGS

SMILES	Selectivity TH, absorbance (O.D.) at 645 nm [1] [O.D.]	Selectivity KL, absorbance (O.D.) at 645 nm [2] [O.D.]	Selectivity PL, absorbance (O.D.) at 645 nm [3] [O.D.]	Selectivity UK, absorbance (O.D.) at 645 nm [4] [O.D.]	Selectivity FXa, absorbance (O.D.) at 645 nm [5] [O.D.]	Vmax (× 10^-7) [6]	Relative ratio [6]
CC(C)C[C@H](NC(=O)[C@H](N)C(C)C)C(=O)N[C@@H](CCCCN)C(=O)Nc1ccc(O)c(C(=O)O)c1 [NPC-1, HD-ValLeuLysCHA.2HBr]	0	0.002	0.013	0	0.002	3.556 × 10^-7	1.000
CC(C)[C@@H](N)C(=O)N[C@@H](Cc1ccccc1)C(=O)N[C@@H](CCCCN)C(=O)Nc1ccc(O)c(C(=O)O)c1 [NPC-2, HD-ValPheLysCHA.2HCl]	0.002	0.006	0.090	0.002	0.004	8.266 × 10^-7	11.811
NCCCC[C@@H](N)C(=O)N[C@@H](Cc1ccccc1)C(=O)N[C@@H](CCCCN)C(=O)Nc1ccc(O)c(C(=O)O)c1 [NPC-3]	0	0.004	0.096	0	0.002	7.506 × 10^-7	30.432
CC(=O)NCCCC[C@@H](N)C(=O)N[C@@H](Cc1ccccc1)C(=O)N[C@@H](CCCCN)C(=O)Nc1ccc(O)c(C(=O)O)c1 [NPC-4, HD-Lys(AC)PheLysCHA.2HCl]	0.001	0.006	0.144	0	0.002	10.940 × 10^-7	39.351
Cc1ccc(S(=O)(=O)NCCCC[C@H](N)C(=O)N[C@@H](Cc2ccccc2)C(=O)N[C@@H](CCCCN)C(=O)Nc2ccc(O)c(C(=O)O)c2)cc1 [NPC-5, HL-Lys(Tos)PheLysCHA.2HCl]	0	0.001	0.051	0	0.002	3.159 × 10^-7	9.739
Cc1ccc(C(=O)NCCCC[C@@H](N)C(=O)N[C@@H](Cc2ccccc2)C(=O)N[C@@H](CCCCN)C(=O)Nc2ccc(O)c(C(=O)O)c2)cc1 [NPC-6, HD-Lys(Toc)PheLysCHA.2HCl]	0	0.007	0.147	0	0.001	11.670 × 10^-7	137.973
Cc1ccc(S(=O)(=O)NCCCC[C@@H](N)C(=O)N[C@@H](Cc2ccccc2)C(=O)N[C@@H](CCCCN)C(=O)Nc2ccc(O)c(C(=O)O)c2)cc1 [NPC-7, 2HCl.H-D-Lys(ToS)-L-Phe-L-Lys-CHA]	0	0.007	0.420	0	0.001	29.417 × 10^-7	128.468
NCCCC[C@H](NC(=O)[C@H](Cc1ccccc1)NC(=O)[C@H](N)CCCCNS(=O)(=O)c1ccc2ccccc2c1)C(=O)Nc1ccc(O)c(C(=O)O)c1 [NPC-8, HD-Lys(NaS)PheLysCHA.2HCl]	0	0.011	0.498	0.002	0.002	30.814 × 10^-7	154.748
